Assay results taken from US20250381179A1, “CHROMAN-BASED COMPOUNDS FOR TREATING CANCER” (priority 2024, published 2025).

What was measured:
ERa = target: T1, ERa (Homo sapiens, UniProt P03372); assay: ERa degradation in ERa-positive breast cancer cell lines; type: cell-based; conditions: multiple ERa-positive breast cancer cell lines, such as MCF7
T1 sequence (P03372 1-595): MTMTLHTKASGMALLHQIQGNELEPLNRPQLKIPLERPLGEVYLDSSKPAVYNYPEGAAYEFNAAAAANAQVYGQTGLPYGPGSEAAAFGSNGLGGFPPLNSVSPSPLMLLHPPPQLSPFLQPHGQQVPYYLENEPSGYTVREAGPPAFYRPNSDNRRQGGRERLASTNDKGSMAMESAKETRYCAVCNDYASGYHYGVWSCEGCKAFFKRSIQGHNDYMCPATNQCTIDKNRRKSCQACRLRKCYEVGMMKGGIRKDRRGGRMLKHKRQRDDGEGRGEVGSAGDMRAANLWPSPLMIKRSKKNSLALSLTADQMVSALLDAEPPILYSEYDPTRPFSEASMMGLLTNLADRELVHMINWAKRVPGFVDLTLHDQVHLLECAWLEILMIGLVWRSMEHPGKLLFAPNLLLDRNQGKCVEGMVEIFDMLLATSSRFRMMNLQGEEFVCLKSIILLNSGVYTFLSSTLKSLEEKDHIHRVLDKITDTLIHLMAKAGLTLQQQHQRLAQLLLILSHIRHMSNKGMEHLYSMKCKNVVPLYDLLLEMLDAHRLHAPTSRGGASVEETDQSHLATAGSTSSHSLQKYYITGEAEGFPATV

CYP1A2 = CYP1A2 induction in hepatocytes (activity, mRNA); type: in vitro ADME; conditions: for CYP1A2 mRNA expression increase: 1 of 3 hepatocyte donors
[1] = test system: ER+/HER2− locally advanced or metastatic breast cancer; assay: Phase 1 study: anti-tumor activity (RECIST v1.1; ORR, CBR, best objective response); type: in vivo, human; conditions: for ORR (CR + PR) - n (%): RECIST 1.1, Investigator assessment; for Response - n (%): RECIST 1.1, efficacy evaluable set; for Confirmed Complete Response (cCR) / Confirmed Partial Response (cPR): confirmed by second assessment at least 4 weeks after first
Method: The study employed an open-label, 3+3 design, with the option of adding backfill patients to each cohort cleared and deemed safe. […] Compound (1-g) was administered orally once daily in 28-day cycles. Tumor responses were assessed every 2 cycles using RECIST v1.1 criteria. Therefore, the initial dose of 100 mg QD was chosen to limit the number of patients exposed to lower efficacious dose levels, while adding an additional 2.5-fold safety margin. The study also involves an ongoing dose escalation study where participants receive 100 mg, 200 mg, 300 mg, 400 mg, and 600 mg once daily (QD) dose levels.
Response and progression will be evaluated in this study using RECIST Version 1.1. Lesions are either measurable or non-measurable according to the criteria. The actual number of dose levels to be explored in this study depended on determination of the non-tolerable dose based on DLTs. Other safety data, as well as PK profiles observed during the conduct of the study and any trends for anti-tumor activity were collected. Treatment cycles occurred consecutively. Evaluation of a cohort of at least 3 patients completing 1 cycle of treatment (28 days) is required prior to proceeding to the next dose level. In addition, selected dose levels may be expanded to approximately 20 patients (per dose level).
All efficacy analyses were performed using the Efficacy Evaluable Analysis Set. Objective Response Rate (ORR), defined as the proportion of patients who have measurable disease at baseline with confirmed […] or partial response (PR) (i.e., 2 CRs or PRs at least 4 weeks apart) according to the RECIST Version 1.1 criteria. Clinical Benefit Rate (CBR), defined as the proportion of patients with CR, PR, or stable disease (SD) (where SD is ≥24 weeks) according to the RECIST Version 1.1 criteria. Duration of Response (DOR), defined as the time between first documentation of a response (CR or PR) and first evidence of PD according to RECIST v1.1 or death due to any cause. […] Progression Free Survival (PFS), defined as the time from the first day of study drug administration (Day 1) until disease progression as defined by the RECIST Version 1.1 criteria, or death on study, whichever occurs first. Patients who are alive and free from disease progression were censored at the date of last tumor assessment. For ORR and CBR, estimates and the associated 95% CIs (based on the Clopper-Pearson method), at each dose level were calculated. The absolute and relative difference in ORR and CBR between the two treatment groups was presented. For PFS, Kaplan-Meier curves were generated and the median time to event, and the associated 95% CIs were provided. The hazard ratio and the 95% CIs for these endpoints between the two treatment groups was calculated.
The overall response is evaluated according to the criteria in Table 4.
The objective response rate (ORR) and the clinical benefit rate (CBR) were assessed for the participants. The clinical benefit rate (CBR), as used herein, is defined as confirmed complete response or partial response at any time and stable disease over ≥24 weeks. Evaluable participants need to complete an adequate post-treatment scan. Participants with SD who remain on study <6 months are not included in the denominator.

## O=C1CC[C@H](N2Cc3cc(N4CCN(CC5CCN(c6ccc([C@@H]7c8ccc(O)cc8OC[C@@H]7c7ccccc7)cc6F)CC5)CC4)ccc3C2=O)C(=O)N1 [compound (1-g), (S)-3-(5-(4-((1-(2-fluoro-4-((3S,4R)-7-hydroxy-3-phenylchroman-4-yl)phenyl)piperidin-4-yl)methyl)piperazin-1-yl)-1-oxoisoindolin-2-yl)piperidine-2,6-dione]
ERa
  ERa degradation: induces rapid ERa degradation
CYP1A2; 0.5 μM (372 ng/mL)
  CYP1A2 mRNA expression increase: 1.4 fold
CYP1A2; 2 μM
  CYP1A2 mRNA expression increase: 3.1 fold
CYP1A2; hepatocytes
  CYP1A2 enzyme activity induction: no induction of CYP1A2 enzyme activity was observed
[1]; Cohort 1 (100 mg QD), N = 2
  Non-Response - n (%): 1 (50.0) n (%)
  Not Applicable (NA): 0 n (%)
  Not Evaluable (NE): 0 n (%)
  Progressive Disease (PD): 0 n (%)
  Unconfirmed Complete Response (uCR): 0 n (%)
  Unconfirmed Partial Response (uPR): 0 n (%)
  ORR (CR + PR) - n (%): 1 (50.0) n (%)
  Response - n (%): 1 (50.0) n (%)
  Confirmed Complete Response (cCR): 0 n (%)
  Confirmed Partial Response (cPR): 1 (50.0) n (%)
[1]; Cohort 2 (200 mg QD), N = 8
  Non-Response - n (%): 6 (75.0) n (%)
  Not Applicable (NA): 0 n (%)
  Not Evaluable (NE): 1 (12.5) n (%)
  Progressive Disease (PD): 2 (25.0) n (%)
  Unconfirmed Complete Response (uCR): 0 n (%)
  Unconfirmed Partial Response (uPR): 0 n (%)
  ORR (CR + PR) - n (%): 2 (25.0) n (%)
  Response - n (%): 2 (25.0) n (%)
  Confirmed Complete Response (cCR): 0 n (%)
  Confirmed Partial Response (cPR): 2 (25.0) n (%)
[1]; Cohort 3 (300 mg QD), N = 9
  Non-Response - n (%): 8 (88.9) n (%)
  Not Applicable (NA): 0 n (%)
  Not Evaluable (NE): 0 n (%)
  Progressive Disease (PD): 4 (44.4) n (%)
  Unconfirmed Complete Response (uCR): 0 n (%)
  Unconfirmed Partial Response (uPR): 0 n (%)
  ORR (CR + PR) - n (%): 1 (11.1) n (%)
  Response - n (%): 1 (11.1) n (%)
  Confirmed Complete Response (cCR): 0 n (%)
  Confirmed Partial Response (cPR): 1 (11.1) n (%)
[1]; Cohort 4 (400 mg QD), N = 4
  Non-Response - n (%): 4 (100) n (%)
  Not Applicable (NA): 0 n (%)
  Not Evaluable (NE): 0 n (%)
  Progressive Disease (PD): 2 (50.0) n (%)
  Unconfirmed Complete Response (uCR): 0 n (%)
  Unconfirmed Partial Response (uPR): 0 n (%)
  ORR (CR + PR) - n (%): 0 n (%)
  Response - n (%): 0 n (%)
  Confirmed Complete Response (cCR): 0 n (%)
  Confirmed Partial Response (cPR): 0 n (%)
[1]; Cohort 5 (600 mg QD), N = 3
  Non-Response - n (%): 3 (100) n (%)
  Not Applicable (NA): 0 n (%)
  Not Evaluable (NE): 0 n (%)
  Progressive Disease (PD): 0 n (%)
  Unconfirmed Complete Response (uCR): 0 n (%)
  Unconfirmed Partial Response (uPR): 0 n (%)
  Response - n (%): 0 n (%)
  Confirmed Complete Response (cCR): 0 n (%)
  Confirmed Partial Response (cPR): 0 n (%)
[1]; Overall, N = 26
  Non-Response - n (%): 22 (84.6) n (%)
  Not Applicable (NA): 0 n (%)
  Not Evaluable (NE): 1 (3.8) n (%)
  Progressive Disease (PD): 8 (30.8) n (%)
  Unconfirmed Complete Response (uCR): 0 n (%)
  Unconfirmed Partial Response (uPR): 0 n (%)
  ORR (CR + PR) - n (%): 4 (15.4) n (%)
  Response - n (%): 4 (15.4) n (%)
  Confirmed Complete Response (cCR): 0 n (%)
  Confirmed Partial Response (cPR): 4 (15.4) n (%)
